Data on four compounds can be found in patent US20240279278A1, “NMU RECEPTOR 2 AGONISTS” (Boehringer Ingelheim International GmbH, priority 2023, published 2024).

Common to all, as to assay type: cell-based
The target of one assay is T1, human NMUR1 receptor (Homo sapiens, UniProt Q9HB89).
T1 construct: expressed in transfected cells; host or cells: CHO-K1
T1 sequence (Q9HB89 1-426): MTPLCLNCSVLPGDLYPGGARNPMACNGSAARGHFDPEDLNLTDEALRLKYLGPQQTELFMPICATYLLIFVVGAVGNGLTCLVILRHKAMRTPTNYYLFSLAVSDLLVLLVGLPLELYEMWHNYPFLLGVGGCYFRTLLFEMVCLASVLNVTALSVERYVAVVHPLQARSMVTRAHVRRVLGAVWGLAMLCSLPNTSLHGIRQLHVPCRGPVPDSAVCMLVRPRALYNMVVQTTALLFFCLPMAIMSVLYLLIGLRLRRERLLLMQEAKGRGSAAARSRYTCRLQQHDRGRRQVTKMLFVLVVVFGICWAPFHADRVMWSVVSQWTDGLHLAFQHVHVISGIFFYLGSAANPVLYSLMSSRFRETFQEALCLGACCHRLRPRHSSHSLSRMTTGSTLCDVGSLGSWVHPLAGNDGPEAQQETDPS
Briefly: IP1 Gq HTRF assay, activation of human NMUR1 in buffer. Conditions: CHO-K1 cells expressing human NMUR1, stimulation buffer with 0.1% BSA; read-out: EC50 (hNMUR1) buffer. The essentials:
(§1)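 CHO-K1 cells stably expressing human NMUR1 or NMUR2, seeded 24 h before assay, stimulated with peptide agonists (8-point dose-response, 1% DMSO final) in HEPES/HBSS buffer with 50 mM LiCl and 0.1% BSA, pH 7.4, 1 h at 37 °C. IP1 accumulation read by HTRF competition (665/620 nm); EC50 from 4-parameter sigmoidal fit.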
For orientation: In TR-FRET formats the signal depends on donor and acceptor labels being close together.

Assay [1] addresses T2, human NMUR2 receptor (Homo sapiens, UniProt Q9GZQ4). Briefly: IP1 Gq HTRF assay, activation of human NMUR2 in buffer. On the set-up: expressed in transfected cells; host or cells: CHO-K1. Conditions: CHO-K1 cells expressing human NMUR2, stimulation buffer with 0.1% BSA; read-out: EC50 (hNMUR2) buffer. The essentials: as §1
In assay [2] the target is T2, human NMUR2 receptor. Nature of the assay: IP1 Gq HTRF assay, activation of human NMUR2 in human plasma. Conditions: CHO-K1 cells expressing human NMUR2, 100% human plasma; read-out: EC50 (hNMUR2) human plasma. On the set-up: expressed in transfected cells; host or cells: CHO-K1. The method in brief:
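CHO-K1 cells stably expressing human NMUR2 exposed to peptide agonists (8-point dose-response) in 100% human plasma with 50 mM LiCl, 1% DMSO, for 1 h at 37° C. IP1 accumulation read by HTRF competition (665/620 nm ratio). EC50 from 4-parameter sigmoidal fit.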

Residues, ends and D or L forms follow the SMILES beside them.

T2 sequence (Q9GZQ4 whole entry): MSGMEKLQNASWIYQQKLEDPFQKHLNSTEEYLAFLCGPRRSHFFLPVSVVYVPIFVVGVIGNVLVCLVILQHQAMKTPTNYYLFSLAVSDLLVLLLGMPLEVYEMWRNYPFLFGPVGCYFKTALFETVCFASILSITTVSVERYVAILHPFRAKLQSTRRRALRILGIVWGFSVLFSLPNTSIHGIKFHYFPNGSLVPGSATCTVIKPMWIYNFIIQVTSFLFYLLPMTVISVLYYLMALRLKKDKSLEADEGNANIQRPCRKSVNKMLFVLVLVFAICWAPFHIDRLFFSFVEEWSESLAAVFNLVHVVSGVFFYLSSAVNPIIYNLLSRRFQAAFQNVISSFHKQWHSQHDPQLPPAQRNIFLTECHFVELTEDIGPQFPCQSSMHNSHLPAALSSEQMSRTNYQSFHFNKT

What is called EC50 is the concentration at which the effect is half-maximal. Turning to `CCCC[C@H](NC(=O)[C@H](CC(C)C)N(C)C(=O)[C@H](Cc1ccccc1)NC(=O)[C@H](Cc1ccc(O)cc1)NC(=O)CN1CCN(CCNC(=O)CN(C)C(=O)CN(C)C(=O)CN(C)C(=O)CN(C)C(=O)CN(C)C(=O)CN(C)C(=O)CN(C)C(=O)CN(C)C(=O)CN(C)C(=O)CN(C)C(=O)CN(C)C(=O)CN(C)C(=O)CC[C@H](NC(=O)CC[C@H](NC(=O)CC[C@H](NC(=O)CCCCCCCCCCCCCCCCC(=O)O)C(=O)O)C(=O)O)C(=O)O)CC1)C(=O)N(C)[C@@H](CCCNC(=N)N)C(=O)N1CCC[C@H]1C(=O)N[C@@H](CCCNC(=N)N)C(=O)NCC(N)=O` [Compound 35, C18DA-gGlu3-Sar12-AEPipAc-Tyr-Phe-NMeLeu-Nle-NMeArg-Pro-Arg-Gly-NH2], the EC50 worked out at 0.19 µM on human NMUR1 receptor, 0.0015 µM at human NMUR2 receptor [1] and 0.0094 µM on human NMUR2 receptor [2].

Regarding `CCCC[C@H](NC(=O)[C@H](CC(C)C)N(C)C(=O)[C@H](Cc1ccccc1)NC(=O)[C@H](Cc1ccc(O)cc1)NC(=O)CN1CCN(CCNC(=O)CN(C)C(=O)CN(C)C(=O)CN(C)C(=O)CN(C)C(=O)CN(C)C(=O)CN(C)C(=O)CN(C)C(=O)CN(C)C(=O)CN(C)C(=O)CN(C)C(=O)CN(C)C(=O)CN(C)C(=O)CN(C)C(=O)CN(C)C(=O)CN(C)C(=O)CC[C@H](NC(=O)CC[C@H](NC(=O)CC[C@H](NC(=O)CCCCCCCCCCCCCCCCCCC(=O)O)C(=O)O)C(=O)O)C(=O)O)CC1)C(=O)N(C)[C@@H](CCCNC(=N)N)C(=O)N(C)[C@@H](C)C(=O)N[C@@H](CCCNC(=N)N)C(=O)NCC(N)=O` [Compound 36, C20DA-gGlu3-Sar15-AEPipAc-Tyr-Phe-NMeLeu-Nle-NMeArg-NMeAla-Arg-Gly-NH2] (HELM PEPTIDE1{[O=C(O)CCCCCCCCCCCCCCCCCCC(=O)[*:2]].[gGlu].[gGlu].[gGlu].[Sar].[Sar].[Sar].[Sar].[Sar].[Sar].[Sar].[Sar].[Sar].[Sar].[Sar].[Sar].[Sar].[Sar].[Sar].[O=C(CN1CCN(CCN[*:1])CC1)[*:2]].Y.F.[meL].[Nle].[meR].[meA].R.G.[am]}$$$$V2.0), the EC50 at human NMUR1 receptor was determined as 1.4 µM; on human NMUR2 receptor [1] it was 0.0047 µM; at human NMUR2 receptor [2] it was 0.0183 µM.

With `CCCC[C@H](NC(=O)[C@H](CC(C)C)N(C)C(=O)[C@H](Cc1ccccc1)NC(=O)[C@H](Cc1ccc(O)cc1)NC(=O)CN1CCN(CCNC(=O)CN(C)C(=O)CN(C)C(=O)CN(C)C(=O)CN(C)C(=O)CN(C)C(=O)CN(C)C(=O)CN(C)C(=O)CN(C)C(=O)CN(C)C(=O)CN(C)C(=O)CN(C)C(=O)CN(C)C(=O)CC[C@H](NC(=O)CC[C@H](NC(=O)CC[C@H](NC(=O)CCCCCCCCCCCCCCCCC(=O)O)C(=O)O)C(=O)O)C(=O)O)CC1)C(=O)N(C)[C@@H](CCCNC(=N)N)C(=O)N(C)[C@@H](C)C(=O)N[C@@H](CCCNC(=N)N)C(=O)NCC(N)=O` [Compound 37, C18DA-gGlu3-Sar12-AEPipAc-Tyr-Phe-NMeLeu-Nle-NMeArg-NMeAla-Arg-Gly-NH2], the EC50 amounted to 1.3 µM on human NMUR1 receptor, 0.0035 µM on human NMUR2 receptor [1] and 0.0271 µM on human NMUR2 receptor [2].

Consider `CCCC[C@H](NC(=O)[C@H](CC(C)C)N(C)C(=O)[C@H](Cc1ccccc1)NC(=O)[C@H](Cc1ccc(O)cc1)NC(=O)CN1CCN(CCNC(=O)CN(C)C(=O)CN(C)C(=O)CN(C)C(=O)CN(C)C(=O)CN(C)C(=O)CN(C)C(=O)CN(C)C(=O)CN(C)C(=O)CN(C)C(=O)CN(C)C(=O)CN(C)C(=O)CN(C)C(=O)CC[C@H](NC(=O)CC[C@H](NC(=O)CC[C@H](NC(=O)CC[C@H](NC(=O)CCCCCCCCCCCCCCCCCCC(=O)O)C(=O)O)C(=O)O)C(=O)O)C(=O)O)CC1)C(=O)N[C@@H](CCCNC(=N)N)C(=O)N1CCC[C@H]1C(=O)N[C@@H](CCCNC(=N)N)C(=O)NCC(N)=O` [Compound 39, C20DA-gGlu4-Sar12-AEPipAc-Tyr-Phe-NMeLeu-Nle-Arg-Pro-Arg-Gly-NH2], for which the half-maximal effective concentration (EC50) on human NMUR1 receptor was 0.19 µM; at human NMUR2 receptor [1] it was 0.0025 µM; on human NMUR2 receptor [2], 0.0104 µM.
